Earlier results as cited in patent US7288559B2, “Carboxamide spirohydantoin CGRP receptor antagonists” (Merck + Co, Inc., priority 2003, dated 2007).
No end group written: not given here.

How the values were obtained:
marmoset = settings: electrical stimulation of the trigeminal ganglion
rats = settings: electrical stimulation of the dura mater, prior administration
rat = settings: trigeminal ganglion stimulation

Compound: NCCCC[C@H](NC(=O)[C@@H](Cc1cc(Br)c(O)c(Br)c1)NC(=O)N1CCC(N2Cc3ccccc3NC2=O)CC1)C(=O)N1CCN(c2ccncc2)CC1 [BIBN4096BS]
- effect on increase in facial blood flow (marmoset): blocked

Compound: CGRP(8-37): a peptide CGRP antagonist (VTHRLAGLLSRSGGVVKNNFVPTNVGSKAF; ends and bridges not checked; UniProt P06881 90-119, looked up, fragment)
- effect on increase of middle meningeal artery diameter (rats): blocked
- effect on increased facial blood flow (rat): inhibited
